Several values for one entry are separate records, joined by “and”; a condition that tells them apart may be missing. Identical values can stand only once. Toxic doses and inconclusive results are not listed. Cut-off read from the data, not from the text of the source: active = T/C of 150% or more; inactive = T/C below 125%.
Tested on: L1210 leukemia ip in BDF1 mice, survival T/C
Test: NCI In Vivo Anticancer Drug Screen. Data for tumor model L1210 Leukemia (intraperitoneal) in B6D2F1 (BDF1) mice
Details: endpoint: mean survival time, higher = longer survival
In short: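 Ratio derived from survival: compound-dosed mice over vehicle-dosed mice, all bearing a transplantable tumor.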

[1] = dose: 100.0 mg/kg/injection, schedule: Q01DX009 (ip), vehicle: saline
[2] = dose: 200.0 mg/kg/injection, schedule: Q01DX009 (ip), vehicle: saline
[3] = dose: 75.0 mg/kg/injection, schedule: Q01DX001 (ip), vehicle: other
[4] = dose: 100.0 mg/kg/injection, schedule: Q04DX003 (ip), vehicle: saline with Tween-80
[5] = dose: 200.0 mg/kg/injection, schedule: Q04DX003 (ip), vehicle: saline with Tween-80
[6] = dose: 400.0 mg/kg/injection, schedule: Q04DX003 (ip), vehicle: saline with Tween-80
[7] = dose: 100.0 mg/kg/injection, schedule: Q01DX009 (ip), vehicle: saline with Tween-80
[8] = dose: 200.0 mg/kg/injection, schedule: Q01DX009 (ip), vehicle: saline with Tween-80
[9] = dose: 400.0 mg/kg/injection, schedule: Q01DX009 (ip), vehicle: saline with Tween-80
[10] = dose: 100.0 mg/kg/injection, schedule: Q04DX002 (ip), vehicle: Klucel (hydroxypropylcellulose) (HPC)
[11] = dose: 200.0 mg/kg/injection, schedule: Q04DX002 (ip), vehicle: Klucel (hydroxypropylcellulose) (HPC)
[12] = dose: 400.0 mg/kg/injection, schedule: Q04DX002 (ip), vehicle: Klucel (hydroxypropylcellulose) (HPC)
[13] = dose: 100.0 mg/kg/injection, schedule: Q04DX003 (ip), vehicle: Klucel (hydroxypropylcellulose) (HPC)
[14] = dose: 200.0 mg/kg/injection, schedule: Q04DX003 (ip), vehicle: Klucel (hydroxypropylcellulose) (HPC)
[15] = dose: 100.0 mg/kg/injection, schedule: Q04DX002 (ip), vehicle: saline with Tween-80
[16] = dose: 200.0 mg/kg/injection, schedule: Q04DX002 (ip), vehicle: saline with Tween-80
[17] = dose: 400.0 mg/kg/injection, schedule: Q04DX002 (ip), vehicle: saline with Tween-80
[18] = dose: 100.0 mg/kg/injection, schedule: Q01DX009 (ip), vehicle: Klucel (hydroxypropylcellulose) (HPC)
[19] = dose: 200.0 mg/kg/injection, schedule: Q01DX009 (ip), vehicle: Klucel (hydroxypropylcellulose) (HPC)
[20] = dose: 400.0 mg/kg/injection, schedule: Q01DX009 (ip), vehicle: Klucel (hydroxypropylcellulose) (HPC)

Measured: T/C

C=CCNP(=O)(OCC)OCC
inactive: dose: 12.5 mg/kg/injection, schedule: Q01DX009 (ip), vehicle: saline 101 % of control | dose: 12.5 mg/kg/injection, schedule: Q04DX003 (ip), vehicle: saline 104 % of control | dose: 25.0 mg/kg/injection, schedule: Q01DX009 (ip), vehicle: saline 87 % of control | dose: 25.0 mg/kg/injection, schedule: Q04DX003 (ip), vehicle: saline 104 % of control | dose: 50.0 mg/kg/injection, schedule: Q04DX003 (ip), vehicle: saline 104 % of control | [1] 104 % of control | dose: 100.0 mg/kg/injection, schedule: Q04DX003 (ip), vehicle: saline 101 % of control | [2] 109 % of control | dose: 200.0 mg/kg/injection, schedule: Q04DX003 (ip), vehicle: saline 115 % of control

O=C1CCC2CN3CCc4c([nH]c5ccccc45)C3CC2C1 (configuration not stated)
inactive: [3] 110 % of control

Cc1cc(C)c(-c2c(O)c(Br)c(C)c(O)c2Br)c(C)c1Br
inactive: dose: 75.0 mg/kg/injection, schedule: Q04DX003 (ip), vehicle: Klucel (hydroxypropylcellulose) (HPC) 97 % of control | dose: 150.0 mg/kg/injection, schedule: Q04DX003 (ip), vehicle: Klucel (hydroxypropylcellulose) (HPC) 97 % of control | dose: 300.0 mg/kg/injection, schedule: Q04DX003 (ip), vehicle: Klucel (hydroxypropylcellulose) (HPC) 92 % of control

CC(C)NC(=O)N(c1ccccc1)C(C)C
inactive: [4] 98 % of control | [5] 89 % of control | [6] 89 % of control

Cc1cnc(C#N)c(Cl)n1
inactive: [7] 95 % of control | [4] 92 % of control | [8] 101 % of control | [5] 98 % of control | [9] 88 % of control | [6] 97 % of control

CCCCC#CC(=O)OC
inactive: [3] 106 % of control | dose: 150.0 mg/kg/injection, schedule: Q01DX001 (ip), vehicle: other 97 % of control | dose: 300.0 mg/kg/injection, schedule: Q01DX001 (ip), vehicle: other 101 % of control

CCOC(=O)C(NNc1ccccc1)C(c1ccccc1)[P+](c1ccccc1)(c1ccccc1)c1ccccc1 (configuration not stated)
inactive: dose: 75.0 mg/kg/injection, schedule: Q01DX001 (ip), vehicle: carboxymethylcellulose (CMC) 101 % of control

COC1=C(C)C(=O)c2c(c(COC(N)=O)c3n2CC2C3N2C)C1=O (configuration not stated)
inactive: dose: 1.0 mg/kg/injection, schedule: Q01DX009 (ip), vehicle: carboxymethylcellulose (CMC) 123 % of control | dose: 1.8 mg/kg/injection, schedule: Q01DX009 (ip), vehicle: carboxymethylcellulose (CMC) 105 % of control | dose: 1.9 mg/kg/injection, schedule: Q01DX001 (ip), vehicle: other 116 % of control and 122 % of control | dose: 2.9 mg/kg/injection, schedule: Q01DX001 (ip), vehicle: other 119 % of control | dose: 4.5 mg/kg/injection, schedule: Q01DX001 (ip), vehicle: other 122 % of control | dose: 6.7 mg/kg/injection, schedule: Q01DX001 (ip), vehicle: other 123 % of control

O=S1(=O)CCCCN1
inactive: dose: 44.0 mg/kg/injection, schedule: Q01DX009 (ip), vehicle: saline 101 % of control | dose: 87.5 mg/kg/injection, schedule: Q01DX009 (ip), vehicle: saline 102 % of control | dose: 175.0 mg/kg/injection, schedule: Q01DX009 (ip), vehicle: saline 98 % of control | dose: 350.0 mg/kg/injection, schedule: Q01DX009 (ip), vehicle: saline 90 % of control

N#Cc1ccc(CCCCCCc2ccc(C#N)cc2)cc1
inactive: dose: 25.0 mg/kg/injection, schedule: Q01DX009 (ip), vehicle: saline with Tween-80 95 % of control | dose: 50.0 mg/kg/injection, schedule: Q01DX001 (ip), vehicle: carboxymethylcellulose (CMC) 101 % of control | dose: 50.0 mg/kg/injection, schedule: Q01DX009 (ip), vehicle: saline with Tween-80 95 % of control | dose: 100.0 mg/kg/injection, schedule: Q01DX001 (ip), vehicle: carboxymethylcellulose (CMC) 106 % of control | [7] 94 % of control | dose: 200.0 mg/kg/injection, schedule: Q01DX001 (ip), vehicle: carboxymethylcellulose (CMC) 110 % of control | dose: 400.0 mg/kg/injection, schedule: Q01DX001 (ip), vehicle: carboxymethylcellulose (CMC) 120 % of control

Nc1cccc2c1C(=O)c1ccccc1-2
inactive: [7] 97 % of control | [8] 103 % of control | [9] 97 % of control

CCN(C(=O)c1cccc(C(=O)N(CC)c2cccc(C)c2)c1)c1cccc(C)c1
inactive: [10] 94 % of control | [11] 91 % of control | [12] 91 % of control

CCS(=O)c1ncc2cnccn12 (configuration not stated)
inactive: dose: 50.0 mg/kg/injection, schedule: Q01DX009 (ip), vehicle: water 105 % of control | dose: 100.0 mg/kg/injection, schedule: Q01DX009 (ip), vehicle: water 107 % of control | dose: 100.0 mg/kg/injection, schedule: Q04DX003 (ip), vehicle: water 102 % of control | dose: 200.0 mg/kg/injection, schedule: Q04DX003 (ip), vehicle: water 100 % of control

C=CCN1/C(=C\C=C\c2ccc3cc(C)ccc3[n+]2CC=C)C=Cc2cc(C)ccc21
inactive: dose: 1.17 mg/kg/injection, schedule: Q01DX001 (ip), vehicle: steriod suspending solution 111 % of control

O=[N+]([O-])c1ccc(Cl)c2ncccc12
inactive: [13] 102 % of control | [14] 98 % of control | dose: 400.0 mg/kg/injection, schedule: Q04DX003 (ip), vehicle: Klucel (hydroxypropylcellulose) (HPC) 102 % of control

Cc1cccc(N=Cc2ccc(Cl)cc2Cl)c1C
inactive: dose: 100.0 mg/kg/injection, schedule: Q01DX009 (ip), vehicle: alcohol 95 % of control | [15] 106 % of control | dose: 200.0 mg/kg/injection, schedule: Q01DX009 (ip), vehicle: alcohol 87 % of control | [16] 102 % of control | [17] 98 % of control

CNC(=O)NCC1OC(OC2(CO)OC(CNC(=O)NC)C(O)C2O)C(O)C(O)C1O (configuration not stated)
inactive: dose: 50.0 mg/kg/injection, schedule: Q01DX009 (ip), vehicle: saline 91 % of control | [1] 98 % of control | [2] 98 % of control

COc1ccc(Cl)cc1NC(=O)Oc1ccc(NC(C)=O)cc1
inactive: [18] 96 % of control | [19] 102 % of control | [20] 98 % of control

CN=C(C#N)c1ccc(OC)c(OC)c1
inactive: dose: 50.0 mg/kg/injection, schedule: Q01DX001 (ip), vehicle: saline 102 % of control | dose: 100.0 mg/kg/injection, schedule: Q01DX001 (ip), vehicle: saline 96 % of control | dose: 200.0 mg/kg/injection, schedule: Q01DX001 (ip), vehicle: saline 102 % of control | dose: 400.0 mg/kg/injection, schedule: Q01DX001 (ip), vehicle: saline 102 % of control

ClC(Cl)(Cl)C(c1cccs1)c1cccs1
inactive: [18] 94 % of control | [10] 93 % of control | [19] 94 % of control | [11] 96 % of control | [20] 94 % of control | [12] 96 % of control

Cc1ccc(NC(=S)Nc2ccccc2)cc1
inactive: [13] 97 % of control | [14] 107 % of control

NC(=O)OCCc1c2ccccc2nc2ccccc12
inactive: dose: 200.0 mg/kg/injection, schedule: Q04DX002 (ip), vehicle: other 103 % of control

CC(NC(=O)C(C)(C)C)c1ccc(-c2ccccc2)cc1 (configuration not stated)
inactive: [15] 98 % of control | [16] 95 % of control | [17] 98 % of control

CCc1occ(C(=O)OC)c1C(=O)OC
inactive: [7] 96 % of control | [4] 95 % of control | [8] 96 % of control | [5] 94 % of control | [9] 100 % of control | [6] 104 % of control

CCC(=O)OC1(c2ccccc2)CCN(CCCC(=O)c2ccccc2)CC1
inactive: dose: 20.0 mg/kg/injection, schedule: Q04DX003 (ip), vehicle: Klucel (hydroxypropylcellulose) (HPC) 111 % of control | dose: 40.0 mg/kg/injection, schedule: Q04DX003 (ip), vehicle: Klucel (hydroxypropylcellulose) (HPC) 96 % of control

From PubChem BioAssay AID248 (DTP/NCI, 2004)
